Assay results: patent US20250026721A1, “COMPOUNDS AND METHODS FOR MODULATING RAS-PI3K” (Vividion Therapeutics, Inc., priority 2023, published 2025)

How the values were obtained:
[1] = system: pAKT(S473) in H358 cell line; assay: In vitro Phospho-AKT(S473) HTRF analysis in H358 cells; assay type: cell-based; settings: Homo sapiens, NCI-H358, 0.5 h; for IC50: H358 cells, 30 minutes at 37° C.; for Emax: read-out: H358 pAKT Imax % control
Description: Example 5. In Vitro Phosgho-AKT(S473) Analysis
Functional activity of the compounds to inhibit pAKT were assessed in FaDu or H358 cell lines as indicated below.
• Complete Media • FBS, Corning catalog #35-010-CV • Anti-Anti, Gibco catalog #15240-062 • 96 well plate, Corning catalog #3610 • TrypLE, Gibco catalog #12604013 • Phospho-AKT(S473) HTRF kit, Cisbio catalog #64AKSPET
Cells were detached from the tissue culture flask with TrypLE. The cells were pelleted at 500×g for 5 min, TrypLe was removed and then resuspended in the necessary volume of media+1% FBS to give the appropriate cell density (17,500 cells/mL for FaDu; 20,000 cells/mL for H358). 100 μL of cell suspension/well was dispensed into the 96-well plate while keeping the outer wells of the plate free of cells and filled with PBS to prevent evaporation of interior wells. The plate was incubated at 37° C. and allowed to adhere overnight. The cells were treated with a dose response of compound and incubated at 37° C. for 30 minutes. The cells were then processed and pAKT(S473) levels were assessed following the specifications of the Cisbio HTRF kit.

[2] = system: pAKT(S473) in FaDu cell line; assay: In vitro Phospho-AKT(S473) HTRF analysis in FaDu cells; assay type: cell-based; settings: Homo sapiens, 0.5 h; for IC50: FaDu cells, 30 minutes at 37° C.; for Emax: FaDu, read-out: FaDu pAKT Imax % control
Method in brief: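 FaDu or H358 cells were plated overnight in medium with 1% FBS, then exposed to a compound dose response for 30 minutes at 37° C. Phospho-AKT(S473) levels were measured by HTRF.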

[3] = target: T1, PIK3CA (Homo sapiens, UniProt P42336); assay: In vitro ELISA target engagement assay for PIK3CA in Jurkat cellular lysate (competition with PIK3CA Biotin Probe); assay type: binding; settings: 1 hour at rt, then 500 nM PIK3CA Biotin Probe, read-out: Elisa Target Engagement Assay (TE50)
T1 construct: endogenous in cells; host or cells: Jurkat cell lysate
Method in brief: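 Competition format in Jurkat lysate: compound (serial dilutions, top 200 μM) for 1 h at rt, then 500 nM final biotinylated PIK3CA probe for 1 h at rt. Sandwich ELISA with capture antibody and Neutravidin-HRP luminescence read-out measured probe-labelled PIK3CA, giving TE50.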

T1 sequence (P42336 whole entry): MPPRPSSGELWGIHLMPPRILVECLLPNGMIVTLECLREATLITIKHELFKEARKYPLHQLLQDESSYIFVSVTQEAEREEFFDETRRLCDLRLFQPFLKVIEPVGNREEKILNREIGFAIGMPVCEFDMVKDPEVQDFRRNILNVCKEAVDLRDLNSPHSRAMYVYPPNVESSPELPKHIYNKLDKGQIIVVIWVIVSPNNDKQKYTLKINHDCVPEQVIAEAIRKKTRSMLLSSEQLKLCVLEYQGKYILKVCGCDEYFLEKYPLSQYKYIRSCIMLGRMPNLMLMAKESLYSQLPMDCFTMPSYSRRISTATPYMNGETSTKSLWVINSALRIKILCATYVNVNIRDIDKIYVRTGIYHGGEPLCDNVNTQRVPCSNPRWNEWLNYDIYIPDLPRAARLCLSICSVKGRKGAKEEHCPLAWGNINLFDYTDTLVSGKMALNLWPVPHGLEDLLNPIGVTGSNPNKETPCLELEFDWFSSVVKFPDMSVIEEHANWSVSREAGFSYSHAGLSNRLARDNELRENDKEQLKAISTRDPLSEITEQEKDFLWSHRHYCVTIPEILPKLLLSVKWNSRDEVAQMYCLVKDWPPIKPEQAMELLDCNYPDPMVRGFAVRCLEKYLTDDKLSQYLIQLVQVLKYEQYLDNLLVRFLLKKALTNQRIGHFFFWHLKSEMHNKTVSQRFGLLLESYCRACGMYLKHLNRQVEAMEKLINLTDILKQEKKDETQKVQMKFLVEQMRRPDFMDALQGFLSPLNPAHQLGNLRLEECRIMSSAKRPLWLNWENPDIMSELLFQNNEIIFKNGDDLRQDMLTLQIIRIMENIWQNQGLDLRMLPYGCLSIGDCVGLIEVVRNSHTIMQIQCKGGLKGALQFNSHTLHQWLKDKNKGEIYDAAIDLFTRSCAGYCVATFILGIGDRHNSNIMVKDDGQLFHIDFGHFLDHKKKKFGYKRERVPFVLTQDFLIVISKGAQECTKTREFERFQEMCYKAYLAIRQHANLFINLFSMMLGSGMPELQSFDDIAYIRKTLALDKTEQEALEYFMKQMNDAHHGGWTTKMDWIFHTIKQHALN
T1 sequence (P27986 whole entry partner): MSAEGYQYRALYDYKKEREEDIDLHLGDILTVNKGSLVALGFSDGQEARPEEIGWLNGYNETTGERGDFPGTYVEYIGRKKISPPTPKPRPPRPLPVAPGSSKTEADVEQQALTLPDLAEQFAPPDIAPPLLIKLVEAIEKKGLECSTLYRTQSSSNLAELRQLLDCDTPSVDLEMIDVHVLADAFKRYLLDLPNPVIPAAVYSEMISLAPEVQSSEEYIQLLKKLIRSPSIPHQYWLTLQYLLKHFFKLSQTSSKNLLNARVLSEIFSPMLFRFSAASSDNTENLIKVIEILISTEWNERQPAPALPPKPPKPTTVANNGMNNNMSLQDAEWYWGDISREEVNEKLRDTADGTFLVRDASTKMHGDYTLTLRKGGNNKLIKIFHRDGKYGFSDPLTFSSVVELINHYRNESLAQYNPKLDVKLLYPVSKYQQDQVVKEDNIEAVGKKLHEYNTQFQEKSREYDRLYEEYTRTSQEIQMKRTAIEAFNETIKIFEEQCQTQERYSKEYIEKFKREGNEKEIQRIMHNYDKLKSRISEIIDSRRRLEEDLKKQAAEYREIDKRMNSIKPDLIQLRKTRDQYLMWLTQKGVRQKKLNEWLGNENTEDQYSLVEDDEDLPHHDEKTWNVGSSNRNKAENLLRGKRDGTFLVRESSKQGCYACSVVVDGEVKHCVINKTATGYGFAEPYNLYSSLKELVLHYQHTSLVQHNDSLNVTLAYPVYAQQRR

IC50 [1] [nM]	IC50 [2] [nM]	IC50 [3] [nM]	Compound	Emax [1] [%]	Emax [2] [%]
464	696	440	C[C@H](/C=C\S(C)(=O)=O)NC(=O)[C@]1(F)CCN(C(=O)[C@H]2CN(CC(F)(F)F)C[C@H]2c2ccccc2Cl)[C@@H](C)C1 (single isomer, unassigned) [Compound 302, (2*S,4*S)-1-((3R,4R)-4-(2-chlorophenyl)-1-(2,2,2-trifluoroethyl)pyrrolidine-3-carbonyl)-4-fluoro-2-methyl-N-((R,Z)-4-(methylsulfonyl)but-3-en-2-yl)piperidine-4-carboxamide]	87.2	101
396	428	650	C[C@H](/C=C\S(C)(=O)=O)NC(=O)[C@@]1(F)CCCN(C(=O)[C@H]2CN(Cc3ccccc3)C[C@H]2c2ccccc2Cl)CC1 (single isomer, unassigned) [Compound 305, (R)-1-((3*R,4*R)-1-benzyl-4-(2-chlorophenyl)pyrrolidine-3-carbonyl)-4-fluoro-N-((R,Z)-4-(methylsulfonyl)but-3-en-2-yl)azepane-4-carboxamide]	90.7	94.3
263	334	310	C[C@H](/C=C\S(C)(=O)=O)NC(=O)[C@@]1(F)CCCN(C(=O)[C@@H]2CCN(CC(F)(F)F)C[C@H]2c2ccccc2Cl)CC1 (single isomer, unassigned) [Compound 306, (R)-1-((3*R,4*R)-3-(2-chlorophenyl)-1-(2,2,2-trifluoroethyl)piperidine-4-carbonyl)-4-fluoro-N-((R,Z)-4-(methylsulfonyl)but-3-en-2-yl)azepane-4-carboxamide]	88	93
408	580	850	C[C@H](/C=C\S(C)(=O)=O)NC(=O)[C@@]1(F)CCCN(C(=O)[C@H]2CN(CC(F)(F)F)CC[C@@H]2c2ccccc2Cl)CC1 (single isomer, unassigned) [Compound 308, (R)-1-((3*R,4*S)-4-(2-chlorophenyl)-1-(2,2,2-trifluoroethyl)piperidine-3-carbonyl)-4-fluoro-N-((R,Z)-4-(methylsulfonyl)but-3-en-2-yl) azepane-4-carboxamide]	91	93.4
115	214	164	C[C@H](/C=C\S(C)(=O)=O)NC(=O)[C@@]1(F)CCCN(C(=O)[C@H]2CN(CC(F)(F)F)C[C@H]2c2ccccc2Cl)CC1 [Compound 165, (R)-1-((3R,4R)-4-(2-chlorophenyl)-1-(2,2,2-trifluoroethyl)pyrrolidine-3-carbonyl)-4-fluoro-N—((R,Z)-4-(methylsulfonyl)but-3-en-2-yl)azepane-4-carboxamide]	95.7	96.7
82.6	78.9	92.7	C[C@H](/C=C\S(C)(=O)=O)NC(=O)[C@@]1(F)CCCN(C(=O)[C@H]2CN(CC(F)(F)F)C[C@H]2c2c(F)cccc2Cl)CC1 [Compound 171, (R)-1-((3R,4R)-4-(2-chloro-6-fluorophenyl)-1-(2,2,2-trifluoroethyl)pyrrolidine-3-carbonyl)-4-fluoro-N—((R,Z)-4-(methylsulfonyl)but-3-en-2-yl)azepane-4-carboxamide]	101	97.8
123	113	190	C[C@H](/C=C\S(C)(=O)=O)NC(=O)[C@@]1(F)CCCN(C(=O)[C@H]2CN(CC(F)(F)Cl)C[C@H]2c2ccccc2Cl)CC1 [Compound 195, (R)-1-((3R,4R)-1-(2-chloro-2,2-difluoroethyl)-4-(2-chlorophenyl)pyrrolidine-3-carbonyl)-4-fluoro-N-((R,Z)-4-(methylsulfonyl)but-3-en-2-yl)azepane-4-carboxamide]	85	96.9
329	450	530	C[C@H](/C=C\S(C)(=O)=O)NC(=O)[C@@]1(F)CCCN(C(=O)[C@H]2CN(CCC(F)(F)F)C[C@H]2c2ccccc2Cl)CC1 [Compound 196, (R)-1-((3R,4R)-4-(2-chlorophenyl)-1-(3,3,3-trifluoropropyl)pyrrolidine-3-carbonyl)-4-fluoro-N-((R,Z)-4-(methylsulfonyl)but-3-en-2-yl)azepane-4-carboxamide]	96.3	86.4
103	129	134	C[C@H](/C=C\S(C)(=O)=O)NC(=O)[C@@]1(F)CCCN(C(=O)[C@H]2CN(CC(F)F)C[C@H]2c2ccccc2Cl)CC1 [Compound 197, (R)-1-((3R,4R)-4-(2-chlorophenyl)-1-(2,2-difluoroethyl)pyrrolidine-3-carbonyl)-4-fluoro-N-((R,Z)-4-(methylsulfonyl)but-3-en-2-yl) azepane-4-carboxamide]	91.4	89
81.6	88.2	53.7	C[C@@H](/C=C\S(C)(=O)=O)NC(=O)C1(F)CCN(S(=O)(=O)c2cnc(C(F)(F)F)cc2-c2ccccc2Cl)CC1 [Compound 208, (S,Z)-1-((4-(2-chlorophenyl)-6-(trifluoromethyl)pyridin-3-yl)sulfonyl)-4-fluoro-N-(4-(methylsulfonyl)but-3-en-2-yl)piperidine-4-carboxamide]	95.9	
